Among the data in publication PMC12279193 (Advanced Science, 2025) are Kd values, retold here.

Experiment [1] deals with MERS-CoV S-trimer protein (Betacoronavirus England 1, UniProt K9N5Q8). Put plainly: biochemical. The format is binding.
In experiment [2] the target is SARS-CoV S-trimer protein (Severe acute respiratory syndrome-related coronavirus, UniProt P59594). Put plainly: biochemical. It is filed as binding.

What is called Kd is the free concentration of one partner at which half of the binding sites on the other are occupied at equilibrium, for simple one-to-one binding. Read a low Kd as higher affinity.

Sequence of MERS-CoV S-trimer protein (K9N5Q8 18-1294 limits assumed): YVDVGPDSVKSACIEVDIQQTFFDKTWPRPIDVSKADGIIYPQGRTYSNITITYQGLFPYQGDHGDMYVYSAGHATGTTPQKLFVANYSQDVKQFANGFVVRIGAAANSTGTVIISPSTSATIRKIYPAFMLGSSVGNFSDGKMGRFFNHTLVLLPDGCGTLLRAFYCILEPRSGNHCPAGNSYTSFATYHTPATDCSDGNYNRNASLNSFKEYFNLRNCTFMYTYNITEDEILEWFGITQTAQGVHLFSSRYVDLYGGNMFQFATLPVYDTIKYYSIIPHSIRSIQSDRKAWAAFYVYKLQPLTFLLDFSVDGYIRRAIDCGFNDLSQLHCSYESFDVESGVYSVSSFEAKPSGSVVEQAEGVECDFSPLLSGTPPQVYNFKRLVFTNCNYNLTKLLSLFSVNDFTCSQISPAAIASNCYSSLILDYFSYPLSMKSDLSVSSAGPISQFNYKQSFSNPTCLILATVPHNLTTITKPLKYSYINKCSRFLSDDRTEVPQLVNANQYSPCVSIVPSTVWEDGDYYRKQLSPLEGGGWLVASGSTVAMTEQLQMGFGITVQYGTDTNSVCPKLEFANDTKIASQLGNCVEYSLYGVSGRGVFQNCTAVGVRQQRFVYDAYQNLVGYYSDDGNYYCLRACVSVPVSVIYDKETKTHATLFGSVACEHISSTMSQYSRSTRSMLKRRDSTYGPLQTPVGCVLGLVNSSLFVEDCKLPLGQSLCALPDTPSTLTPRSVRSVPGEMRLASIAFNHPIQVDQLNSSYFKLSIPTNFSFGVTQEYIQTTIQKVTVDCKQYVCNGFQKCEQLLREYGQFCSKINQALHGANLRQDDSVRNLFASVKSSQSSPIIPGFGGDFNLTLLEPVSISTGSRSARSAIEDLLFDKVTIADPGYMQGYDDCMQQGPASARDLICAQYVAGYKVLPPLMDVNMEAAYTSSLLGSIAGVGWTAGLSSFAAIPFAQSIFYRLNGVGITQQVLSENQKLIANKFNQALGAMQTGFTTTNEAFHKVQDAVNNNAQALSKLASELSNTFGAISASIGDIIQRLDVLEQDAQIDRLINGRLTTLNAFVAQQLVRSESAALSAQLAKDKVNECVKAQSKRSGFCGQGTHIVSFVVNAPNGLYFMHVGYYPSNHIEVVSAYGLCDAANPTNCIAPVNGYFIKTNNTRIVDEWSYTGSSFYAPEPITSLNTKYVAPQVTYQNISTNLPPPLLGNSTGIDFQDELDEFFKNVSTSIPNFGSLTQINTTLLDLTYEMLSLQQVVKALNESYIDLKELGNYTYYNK

In the case of `CN(/N=C/c1ccccc1C(=O)O)c1nc(-c2ccccc2Cl)cs1` [S416], the figures for the equilibrium dissociation constant (Kd) in experiment [1] and in experiment [2] were 55.4 µM and 27.2 µM, respectively.
